We go through six molecules from patent US6605638B1, “Use of branched chain fatty acids and derivatives thereof for inhibition of P-glycoprotein” (D-Pharm Limited, priority 2000, dated 2003).

Bounds are passed on as bounds.

For one series, the system named is MES-SA/Dx5 cells. Description: MTT assay of doxorubicin toxicity in multi-drug resistant cells. Conditions: for % Toxicity: alone, 72 hours. (Formazan colour is commonly taken as a measure of viable cells.)
The subject of series [1] is endothelial cell monolayers. Description: [14C]-sucrose permeability (integrity) of endothelial cell monolayers, in vitro BBB model.
In series [2] the target is T1, P-glycoprotein (Bos taurus, UniProt A0A3Q1MB23). Description: Vincristine transport/clearance across endothelial cell monolayers, in vitro BBB co-culture model. It counts as cell-based, bovine. Further details: P-glycoprotein is expressed in cultured endothelial cells; endogenous in cells; host or cells: primary bovine brain capillary endothelial cells, co-cultured with newborn rat astrocytes in the lower compartment.

The target of series [3] is T1, P-glycoprotein. Description: Vincristine accumulation (uptake) in endothelial cells, in vitro BBB model.

T1 sequence (A0A3Q1MB23 1-1267): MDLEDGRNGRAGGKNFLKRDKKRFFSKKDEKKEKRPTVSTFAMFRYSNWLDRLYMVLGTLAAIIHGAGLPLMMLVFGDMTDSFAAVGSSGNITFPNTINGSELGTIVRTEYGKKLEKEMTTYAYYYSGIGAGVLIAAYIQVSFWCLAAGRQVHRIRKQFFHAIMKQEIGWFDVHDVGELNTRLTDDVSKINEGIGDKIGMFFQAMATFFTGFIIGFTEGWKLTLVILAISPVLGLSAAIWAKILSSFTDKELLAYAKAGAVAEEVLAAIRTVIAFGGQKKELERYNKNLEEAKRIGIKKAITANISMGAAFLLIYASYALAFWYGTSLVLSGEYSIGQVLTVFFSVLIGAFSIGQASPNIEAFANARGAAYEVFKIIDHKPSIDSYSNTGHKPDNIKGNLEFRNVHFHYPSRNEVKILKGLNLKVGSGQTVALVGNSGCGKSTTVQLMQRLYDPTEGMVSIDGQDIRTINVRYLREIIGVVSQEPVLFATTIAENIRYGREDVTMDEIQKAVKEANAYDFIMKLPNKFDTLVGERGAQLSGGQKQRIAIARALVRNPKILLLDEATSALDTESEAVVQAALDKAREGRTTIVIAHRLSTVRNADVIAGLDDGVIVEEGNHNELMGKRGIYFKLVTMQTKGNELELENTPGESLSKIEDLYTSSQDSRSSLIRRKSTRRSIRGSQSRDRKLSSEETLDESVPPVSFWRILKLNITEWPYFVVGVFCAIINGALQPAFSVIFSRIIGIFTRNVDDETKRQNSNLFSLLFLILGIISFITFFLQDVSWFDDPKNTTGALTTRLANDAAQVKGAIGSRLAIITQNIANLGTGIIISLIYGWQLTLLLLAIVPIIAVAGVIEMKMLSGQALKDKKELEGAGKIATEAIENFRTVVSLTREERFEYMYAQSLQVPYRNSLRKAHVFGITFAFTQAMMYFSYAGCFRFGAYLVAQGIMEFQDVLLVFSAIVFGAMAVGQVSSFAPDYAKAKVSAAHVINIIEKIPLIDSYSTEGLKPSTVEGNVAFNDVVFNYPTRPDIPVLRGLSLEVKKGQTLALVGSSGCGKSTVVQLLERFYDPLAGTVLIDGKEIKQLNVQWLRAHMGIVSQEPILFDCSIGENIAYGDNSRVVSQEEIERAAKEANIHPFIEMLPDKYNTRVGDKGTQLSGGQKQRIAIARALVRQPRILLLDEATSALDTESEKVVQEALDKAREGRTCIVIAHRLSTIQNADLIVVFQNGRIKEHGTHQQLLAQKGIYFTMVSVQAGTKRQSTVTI

On to `C#CCC(CCCCCCCCCCCC)C(=O)O` (stereo not drawn) [DP-3-yl,12, 2,3-propynyltetradecanoic acid], for which the “% Toxicity” value with MES-SA/Dx5 cells (3.125 μg/ml) was 0.48%.
On to `CCCCCCCC(CCCCCCC)C(=O)O` [DP-7,7, 2-heptylnonanoic acid], for which the “% Toxicity” value with MES-SA/Dx5 cells (3.125 μg/ml) was found to be 0.1%.
For `CCCCCCCCCCC(CCC)C(=O)O` (stereo not drawn) [DP-3,10, 2-propyldodecanoic acid], in the series with MES-SA/Dx5 cells (12.5 μg/ml), the “% Toxicity” value is on record as 0.1%.
In the case of `CCCCCCCCCCCCCCC(CCC)C(=O)O` (stereo not drawn) [DP-3,14, 2-propylhexadecanoic acid], the “Paracellular breakdown (opening of the tight junctions) of endothelial cells” value in series [1] (0.01 mg/ml, 48 hours incubation) is “no paracellular breakdown”. The “Sucrose permeability of the monolayer” value is reported as 274% in series [1] (Example 4, 0.08 mg/ml, 60 min); 266% in series [1] (Example 4, 0.16 mg/ml, 60 min); 278% in series [1] (Example 4, […], 60 min); “No change” in series [1] (Example 5, 0.01 mg/ml); 452% in series [1] (Example 5, 0.02 mg/ml, 60 min); 574% in series [1] (Example 5, 0.08 mg/ml, 60 min). Further, the “Sucrose permeability of the monolayer (significant decrease)” value is 66% in series [1] (Example 5, 0.001 mg/ml) and 68% in series [1] (Example 5, 0.005 mg/ml). For the same molecule, the “Transport of sucrose (paracellular marker)” value in series [1] (Example 5 conclusion, 0.001—0.01 mg/ml) was “no increase”. Also, the Clearance of vincristine result on P-glycoprotein [2] (Example 4, even with lowest concentration 0.08 mg/ml, similar to control without cells) is given as “significant clearance”. Further, the Transport of vincristine entry is recorded as “significant increase” at P-glycoprotein [2] (Example 5, 0.001 mg/ml); “Larger effects” at P-glycoprotein [2] (Example 5, 0.02 and 0.08 mg/ml); “increase” on P-glycoprotein [2] (Example 5 conclusion, low concentration 0.001—0.01 mg/ml). The “Cellular accumulation of vincristine compared with verapamil” value at P-glycoprotein [3] (Example 4, 0.08 and 0.16 mg/ml, 60 min) is recorded as “more pronounced than the same effect induced by verapamil”. Further, the “Increase in vincristine uptake compared with verapamil” value on P-glycoprotein [3] (Example 5, 0.001, 0.005 or 0.01 mg/ml, 60 min) was “lower than that observed with verapamil”. For the same molecule, the “Vincristine accumulation in the cells relative to that caused by verapamil” value at P-glycoprotein [3] (Example 5, 0.02 or 0.08 mg/ml, 60 minute incubation) was 2-3 fold.
`CC[C@]1(O)C[C@H]2CN(CCc3c([nH]c4ccccc34)[C@@](C(=O)OC)(c3cc4c(cc3OC)N(C=O)[C@H]3[C@@](O)(C(=O)OC)[C@H](OC(C)=O)[C@]5(CC)C=CCN6CC[C@]43[C@@H]65)C2)C1` [vincristine, [γ-^3H]Vincristine sulphate, reference compound]: the “Toxicity for the endothelial cells / integrity of the monolayers” value in series [1] (Example 4, 50 nM vincristine, verapamil 25 μM) is “not toxic”. In series [1] (Example 4, with 50 nM vincristine), the “Permeability coefficient for [14C]-sucrose (Pesucrose)” value is recorded as 1.33±0.08 ×10^−3 cm/min.
Turning to `COc1cccc2c1C(=O)c1c(O)c3c(c(O)c1C2=O)C[C@@](O)(C(=O)CO)C[C@@H]3O[C@H]1C[C@H](N)[C@H](O)[C@H](C)O1` [Dox, doxorubicin, reference compound], the “% Toxicity” value with MES-SA/Dx5 cells (0.125 μg/ml) amounted to 0%. Besides, the “Concentration up to which MES-SA/Dx5 cells are resistant” value in the series on MES-SA/Dx5 cells (calibration experiments) is no more than 250 ng/mL.
